What was measured:
Format in all cases: functional
[1] = system: SK-MEL-28; assay: Antiproliferative activity against human SK-MEL-28 cells assessed as cell viability at 10^-5 M incubated for 48 hrs by sulforhodamine B assay relative to control; details: SK-MEL-28, 48 h, read-out: Activity
[2] = system: SR; assay: Antiproliferative activity against human SR cells assessed as cell viability at 10^-5 M incubated for 48 hrs by sulforhodamine B assay relative to control; details: read-out: Activity
[3] = system: COLO 205; assay: Antiproliferative activity against human COLO205 cells assessed as cell viability at 10^-5 M incubated for 48 hrs by sulforhodamine B assay relative to control; details: COLO 205, 48 h, read-out: Activity
[4] = system: NCI/ADR-RES; assay: Antiproliferative activity against human NCI-ADR-RES cells assessed as cell viability at 10^-5 M incubated for 48 hrs by sulforhodamine B assay relative to control; details: read-out: Activity
[5] = system: NCI-H226; assay: Antiproliferative activity against human NCI-H226 cells assessed as cell viability at 10^-5 M incubated for 48 hrs by sulforhodamine B assay relative to control; details: NCI-H226, 48 h, read-out: Activity
[6] = system: NCI-H522; assay: Antiproliferative activity against human NCI-H522 cells assessed as cell viability at 10^-5 M incubated for 48 hrs by sulforhodamine B assay relative to control; details: NCI-H522, 48 h, read-out: Activity
[7] = system: OVCAR-3; assay: Antiproliferative activity against human OVCAR3 cells assessed as cell viability at 10^-5 M incubated for 48 hrs by sulforhodamine B assay relative to control; details: OVCAR-3, 48 h, read-out: Activity
[8] = system: SK-MEL-5; assay: Antiproliferative activity against human SK-MEL-5 cells assessed as cell viability at 10^-5 M incubated for 48 hrs by sulforhodamine B assay relative to control; details: SK-MEL-5, 48 h, read-out: Activity
[9] = system: SK-OV-3; assay: Antiproliferative activity against human SKOV3 cells assessed as cell viability at 10^-5 M incubated for 48 hrs by sulforhodamine B assay relative to control; details: SK-OV-3, 48 h, read-out: Activity
[10] = system: HCT-116; assay: Antiproliferative activity against human HCT116 cells assessed as cell viability at 10^-5 M incubated for 48 hrs by sulforhodamine B assay relative to control; details: HCT-116, 48 h, read-out: Activity
[11] = system: PC-3; assay: Antiproliferative activity against human PC3 cells assessed as cell viability at 10^-5 M incubated for 48 hrs by sulforhodamine B assay relative to control; details: PC-3, 48 h, read-out: Activity
[12] = system: RPMI-8226; assay: Antiproliferative activity against human RPMI8226 cells assessed as cell viability at 10^-5 M incubated for 48 hrs by sulforhodamine B assay relative to control; details: RPMI-8226, 48 h, read-out: Activity
[13] = system: UACC-257; assay: Antiproliferative activity against human UACC257 cells assessed as cell viability at 10^-5 M incubated for 48 hrs by sulforhodamine B assay relative to control; details: UACC-257, 48 h, read-out: Activity
[14] = system: NCI-H322M; assay: Antiproliferative activity against human NCI-H322M cells assessed as cell viability at 10^-5 M incubated for 48 hrs by sulforhodamine B assay relative to control; details: read-out: Activity
[15] = system: A549; assay: Antiproliferative activity against human A549 cells assessed as cell viability at 10^-5 M incubated for 48 hrs by sulforhodamine B assay relative to control; details: A549, 48 h, read-out: Activity
[16] = system: T47D; assay: Antiproliferative activity against human T47D cells assessed as cell viability at 10^-5 M incubated for 48 hrs by sulforhodamine B assay relative to control; details: read-out: Activity
[17] = system: OVCAR-5; assay: Antiproliferative activity against human OVCAR5 cells assessed as cell viability at 10^-5 M incubated for 48 hrs by sulforhodamine B assay relative to control; details: OVCAR-5, 48 h, read-out: Activity
[18] = system: NCI-H23; assay: Antiproliferative activity against human NCI-H23 cells assessed as cell viability at 10^-5 M incubated for 48 hrs by sulforhodamine B assay relative to control; details: NCI-H23, 48 h, read-out: Activity
[19] = system: SF-295; assay: Antiproliferative activity against human SF295 cells assessed as cell viability at 10^-5 M incubated for 48 hrs by sulforhodamine B assay relative to control; details: SF-295, 48 h, read-out: Activity
[20] = system: M14; assay: Antiproliferative activity against human M14 cells assessed as cell viability at 10^-5 M incubated for 48 hrs by sulforhodamine B assay relative to control; details: M14, 48 h, read-out: Activity
[21] = system: MDA-MB-468; assay: Antiproliferative activity against human MDA-MB-468 cells assessed as cell viability at 10^-5 M incubated for 48 hrs by sulforhodamine B assay relative to control; details: MDA-MB-468, 48 h, read-out: Activity
[22] = system: IGROV-1; assay: Antiproliferative activity against human IGROV1 cells assessed as cell viability at 10^-5 M incubated for 48 hrs by sulforhodamine B assay relative to control; details: IGROV-1, 48 h, read-out: Activity
[23] = system: SN12C; assay: Antiproliferative activity against human SN12C cells assessed as cell viability at 10^-5 M incubated for 48 hrs by sulforhodamine B assay relative to control; details: read-out: Activity
[24] = system: LOX IMVI; assay: Antiproliferative activity against human LOXIMVI cells assessed as cell viability at 10^-5 M incubated for 48 hrs by sulforhodamine B assay relative to control; details: read-out: Activity
[25] = system: UO-31; assay: Antiproliferative activity against human UO31 cells assessed as cell viability at 10^-5 M incubated for 48 hrs by sulforhodamine B assay relative to control; details: UO-31, 48 h, read-out: Activity
[26] = system: KM12; assay: Antiproliferative activity against human KM12 cells assessed as cell viability at 10^-5 M incubated for 48 hrs by sulforhodamine B assay relative to control; details: KM12, 48 h, read-out: Activity
[27] = system: EKVX; assay: Antiproliferative activity against human EKVX cells assessed as cell viability at 10^-5 M incubated for 48 hrs by sulforhodamine B assay relative to control; details: read-out: Activity
[28] = system: HCC 2998; assay: Antiproliferative activity against human HCC2998 cells assessed as cell viability at 10^-5 M incubated for 48 hrs by sulforhodamine B assay relative to control; details: HCC 2998, 48 h, read-out: Activity

Row | SMILES | viability at 10 µM [1] | viability at 10 µM [2] | viability at 10 µM [3] | viability at 10 µM [4] | viability at 10 µM [5] | viability at 10 µM [6] | viability at 10 µM [7] | viability at 10 µM [8] | viability at 10 µM [9] | viability at 10 µM [10] | viability at 10 µM [11] | viability at 10 µM [12] | viability at 10 µM [13] | viability at 10 µM [14] | viability at 10 µM [15] | viability at 10 µM [16] | viability at 10 µM [17] | viability at 10 µM [18] | viability at 10 µM [19] | viability at 10 µM [20] | further results
1 | CCOc1cc2c(c(OC)c1OCC)C(=O)NC1C2CC(O)C(O)C1O (racemic) | 105% | 95.8% | 116% | 105% | 99.1% | 93.3% | 102% | 102% | 103% | 95.6% | 96.9% | 101% | 98.2% | 106% | 84.3% | 96.3% | 109% | 95.8% | 102% | 107% | viability at 10 µM [21]: 96.2%; viability at 10 µM [22]: 112%; viability at 10 µM [23]: 104%; viability at 10 µM [24]: 98.4%; viability at 10 µM [25]: 96.1%; viability at 10 µM [26]: 103%; viability at 10 µM [27]: 99.1%; viability at 10 µM [28]: 107%
2 | CCOc1cc2c(c(OCC)c1OCC)C(=O)NC1C2CC(O)C(O)C1O (racemic) | 107% | 96.2% | 115% | 108% | 96.3% | 89.2% | 104% | 107% | 105% | 101% | 89.4% | 102% | 101% | 97.8% | 95.8% | 100% | 104% | 101% | 100% | 103% | viability at 10 µM [21]: 107%; viability at 10 µM [22]: 108%; viability at 10 µM [23]: 108%; viability at 10 µM [24]: 98.7%; viability at 10 µM [25]: 88.4%; viability at 10 µM [26]: 103%; viability at 10 µM [27]: 97.3%; viability at 10 µM [28]: 107%
3 | CCOc1c(OC)cc2c(c1O)C(=O)NC1C2CC(O)C(O)C1O (racemic) | 105% | 89.2% | 115% | 110% | 99.8% | 92.3% | 102% | 101% | 98.1% | 104% | 100% | 103% | 100% | 103% | 94.7% | 92.8% | 98.7% | 107% | 102% | 105% | viability at 10 µM [21]: 94.9%; viability at 10 µM [22]: 102%; viability at 10 µM [23]: 104%; viability at 10 µM [24]: 98.1%; viability at 10 µM [25]: 92.9%; viability at 10 µM [26]: 104%; viability at 10 µM [27]: 98%; viability at 10 µM [28]: 102%
4 | COc1cc2c(c(OC)c1OC)C(=O)NC1C2CC(O)C(O)C1O (racemic) | 111% | 95.6% | 108% | 108% | 102% | 97.7% | 112% | 104% | 99.9% | 98.9% | 96.5% | 102% | 100% | 104% | 98.4% | 100% | 106% | 106% | 98.3% | 98.5% | viability at 10 µM [21]: 102%; viability at 10 µM [22]: 111%; viability at 10 µM [23]: 104%; viability at 10 µM [24]: 97.7%; viability at 10 µM [25]: 87.1%; viability at 10 µM [26]: 108%; viability at 10 µM [27]: 103%; viability at 10 µM [28]: 101%

Source: ChEMBL document CHEMBL4346705, “(±)-trans-Dihydronarciclasine and (±)-trans-dihydrolycoricidine analogues modified in their ring A: Evaluation of their anticancer activity and a SAR study” (2019)
